Reference: DBAASP
In brackets after ≈: the same amount, converted by molar mass.

Legend:
Experiment in all cases: ≥ marks a high value that may be exact or a test limit, other limits are often not marked, values filed in µg/mL are converted to µM
[1] = tested on: Streptococcus pyogenes M1T1 5448
[2] = tested on: Escherichia coli BL21
[3] = tested on: Pseudomonas aeruginosa PAO1
[4] = tested on: Staphylococcus aureus ATCC 25923
[5] = tested on: Batrachochytrium dendrobatidis JEL-197
[6] = tested on: Escherichia coli ATCC 25726
[7] = tested on: Candida albicans ATCC 90028

| SMILES | MIC [1] [µM] | MIC [2] [µM] | MIC [3] [µM] | MIC [4] [µM] | MIC [5] [µM] | MIC [6] [µM] | MIC [7] [µM] |
| --- | --- | --- | --- | --- | --- | --- | --- |
| CC[C@H](C)[C@H](NC(=O)[C@H](CCCCN)NC(=O)[C@H](CCCCN)NC(=O)[C@H](CCCCN)NC(=O)[C@H](CC(C)C)NC(=O)[C@H](Cc1ccccc1)NC(=O)[C@H](CCC(N)=O)NC(=O)[C@H](CCCN=C(N)N)NC(=O)[C@@H](NC(=O)[C@@H](NC(=O)[C@H](CCC(=O)O)NC(=O)[C@H](CCCCN)NC(=O)CNC(=O)[C@H](C)N)[C@@H](C)O)[C@@H](C)CC)C(=O)N[C@@H](CCC(N)=O)C(=O)N[C@@H](CCC(=O)O)C(=O)N[C@@H](Cc1c[nH]c2ccccc12)C(=O)N[C@@H](CCCCN)C(=O)N[C@@H](CCCCN)C(=O)N[C@@H](CCCN=C(N)N)C(=O)N[C@@H](C)C(=O)N[C@H](C(=O)N[C@H](C(=O)N[C@@H](C)C(=O)N[C@@H](Cc1c[nH]c2ccccc12)C(=O)O)[C@@H](C)CC)[C@@H](C)O [AGKETIRQFLKKKIQEWKKRATIAW] | 0.5 (≈ 1.53 µg/mL) | 0.5 (≈ 1.53 µg/mL) | 16 (≈ 48.9 µg/mL) |  |  |  |  |
| CC[C@H](C)[C@H](NC(=O)[C@H](Cc1ccccc1)NC(=O)[C@H](C)NC(=O)[C@H](CCCCN)NC(=O)[C@H](CCCCN)NC(=O)CNC(=O)[C@H](CCCN=C(N)N)NC(=O)[C@H](CCCCN)NC(=O)[C@H](CCCN=C(N)N)NC(=O)[C@H](CC(C)C)NC(=O)[C@H](CCC(=O)O)NC(=O)[C@H](CCC(=O)O)NC(=O)[C@H](CCCCN)NC(=O)[C@H](CC(C)C)NC(=O)[C@H](Cc1ccc(O)cc1)NC(=O)[C@H](CC(C)C)NC(=O)[C@@H](NC(=O)[C@H](CC(C)C)NC(=O)[C@H](C)NC(=O)[C@H](CCC(N)=O)NC(=O)[C@H](CCCN=C(N)N)NC(=O)CNC(=O)[C@H](C)N)[C@@H](C)O)C(=O)N[C@@H](Cc1c[nH]c2ccccc12)C(=O)N[C@@H](Cc1c[nH]c2ccccc12)C(=O)O [AGRQALTLYLKEELRKRGKKAFIWW] | 4 (≈ 12.3 µg/mL) | 16 (≈ 49 µg/mL) | > 128 |  |  |  |  |
| CC[C@H](C)[C@H](NC(=O)[C@H](Cc1ccc(O)cc1)NC(=O)[C@H](CCCCN)NC(=O)[C@H](CCCCN)NC(=O)[C@H](CC(C)C)NC(=O)[C@H](CCC(=O)O)NC(=O)[C@H](CCCCN)NC(=O)[C@H](Cc1c[nH]c2ccccc12)NC(=O)[C@@H](NC(=O)[C@H](CCCN=C(N)N)NC(=O)[C@H](CCC(=O)O)NC(=O)[C@H](CO)NC(=O)CNC(=O)[C@H](C)N)[C@@H](C)CC)C(=O)N[C@@H](CCCCN)C(=O)N[C@@H](CCCCN)C(=O)NCC(=O)N[C@@H](CCCCN)C(=O)N[C@@H](CCCCN)C(=O)N[C@H](C(=O)N[C@H](C(=O)N[C@@H](CCCN=C(N)N)C(=O)N[C@@H](C)C(=O)N[C@@H](C)C(=O)N[C@@H](Cc1c[nH]c2ccccc12)C(=O)O)[C@@H](C)CC)C(C)C [AGSERIWKELKKYIKKGKKVIRAAW] | 16 (≈ 47.8 µg/mL) | 2 (≈ 5.98 µg/mL) | 8 (≈ 23.9 µg/mL) |  |  |  |  |
| CC[C@H](C)[C@H](NC(=O)[C@H](CCCCN)NC(=O)CNC(=O)[C@H](Cc1ccccc1)NC(=O)[C@H](CCCCN)NC(=O)[C@H](CCCN=C(N)N)NC(=O)[C@H](CC(C)C)NC(=O)[C@H](Cc1ccc(O)cc1)NC(=O)[C@H](CCC(=O)O)NC(=O)[C@H](CC(C)C)NC(=O)[C@H](CC(C)C)NC(=O)[C@H](CCC(=O)O)NC(=O)[C@H](CCCCN)NC(=O)[C@@H](NC(=O)[C@H](CC(C)C)NC(=O)[C@H](CCCN=C(N)N)NC(=O)[C@H](CC(N)=O)NC(=O)[C@H](C)NC(=O)[C@H](CCCCN)NC(=O)[C@H](C)N)[C@@H](C)O)C(=O)N[C@@H](C)C(=O)N[C@@H](CCCN=C(N)N)C(=O)N[C@@H](CCCCN)C(=O)N[C@@H](C)C(=O)N[C@@H](Cc1c[nH]c2ccccc12)C(=O)O [AKANRLTKELLEYLRKFGKIARKAW] | 4 (≈ 12 µg/mL) | 2 (≈ 6.01 µg/mL) | 16 (≈ 48.1 µg/mL) |  |  |  |  |

Second part, the molecule after the results:

| MIC [1] [µM] | MIC [2] [µM] | MIC [3] [µM] | MIC [4] [µM] | MIC [5] [µM] | MIC [6] [µM] | MIC [7] [µM] | SMILES |
| --- | --- | --- | --- | --- | --- | --- | --- |
| 0.5 (≈ 1.47 µg/mL) | 4 (≈ 11.8 µg/mL) | 64 (≈ 189 µg/mL) |  |  |  |  | CC[C@H](C)[C@H](NC(=O)[C@H](CCCCN)NC(=O)CNC(=O)[C@H](Cc1ccccc1)NC(=O)[C@H](CCCCN)NC(=O)[C@H](CCCN=C(N)N)NC(=O)[C@H](CC(C)C)NC(=O)[C@H](Cc1ccc(O)cc1)NC(=O)[C@H](CCC(=O)O)NC(=O)[C@H](CC(C)C)NC(=O)[C@H](CC(C)C)NC(=O)[C@H](CCC(=O)O)NC(=O)[C@H](CCCCN)NC(=O)[C@@H](NC(=O)[C@H](CC(C)C)NC(=O)[C@H](CCCN=C(N)N)NC(=O)[C@H](CCC(N)=O)NC(=O)[C@H](C)NC(=O)CNC(=O)[C@H](C)N)[C@@H](C)O)C(=O)N[C@@H](C)C(=O)N[C@@H](CCCN=C(N)N)C(=O)N[C@@H](CCCCN)C(=O)N[C@@H](C)C(=O)N[C@@H](Cc1c[nH]c2ccccc12)C(=O)O [AGAQRLTKELLEYLRKFGKIARKAW] |
|  |  |  | 12.5 (≈ 32.5 µg/mL) | 6.25 (≈ 16.3 µg/mL) | ≥ 50 |  | CC[C@H](C)[C@@H]1NC(=O)[C@H](CC(C)C)NC(=O)[C@@H](NC(=O)[C@@H](NC(=O)[C@@H](NC(=O)[C@H](CCCCN)NC(=O)[C@@H]2CCCN2C(=O)[C@@H](NC(=O)[C@@H](NC(=O)[C@H](CCCN=C(N)N)NC(=O)[C@H](C)NC(=O)[C@H](C)NC(=O)[C@@H](NC(=O)CNC(=O)[C@H](C)NC(=O)[C@H](CC(C)C)NC(=O)[C@H](CCSC)NC(=O)[C@@H]2CCCN2C(=O)[C@H](Cc2ccccc2)NC(=O)[C@@H](N)Cc2ccccc2)C(C)C)C(C)C)C(C)C)C(C)C)[C@@H](C)CC)CSSC[C@@H](C(=O)O)NC(=O)[C@H](CCCCN)NC(=O)[C@H](CCCCN)NC(=O)[C@H]([C@@H](C)O)NC1=O [FFPMLAGVAARVVPKVICLITKKC] |
|  |  |  | 6 (≈ 15.3 µg/mL) | 12.5 (≈ 31.8 µg/mL) | ≥ 50 | 12 (≈ 30.6 µg/mL) | CC[C@H](C)[C@@H]1NC(=O)[C@H](CC(C)C)NC(=O)[C@@H](NC(=O)[C@@H](NC(=O)[C@H](CC(C)C)NC(=O)[C@H](CCCCN)NC(=O)[C@@H]2CCCN2C(=O)[C@@H](NC(=O)[C@H](CCSC)NC(=O)[C@H](CO)NC(=O)[C@H](C)NC(=O)[C@H](C)NC(=O)[C@H](CC(C)C)NC(=O)CNC(=O)[C@H](C)NC(=O)[C@H](CC(C)C)NC(=O)[C@H](CCSC)NC(=O)[C@@H]2CCCN2C(=O)[C@H](CC(C)C)NC(=O)[C@@H](N)Cc2ccccc2)C(C)C)C(C)C)CSSC[C@@H](C(=O)O)NC(=O)[C@H](CCCCN)NC(=O)[C@H](CCCCN)NC(=O)[C@H]([C@@H](C)O)NC1=O [FLPMLAGLAASMVPKLVCLITKKC] |
|  |  |  | 80 (≈ 232 µg/mL) | ≥ 50 | ≥ 160 |  | CC[C@H](C)[C@H](NC(=O)CN)C(=O)N[C@@H](CC(C)C)C(=O)N[C@@H](CC(=O)O)C(=O)N[C@H](C(=O)N[C@H](C(=O)N[C@@H](CCCCN)C(=O)NCC(=O)N[C@H](C(=O)N[C@@H](C)C(=O)N[C@@H](CCCCN)C(=O)N[C@@H](CC(=O)O)C(=O)N[C@H](C(=O)N[C@@H](C)C(=O)N[C@@H](C)C(=O)N[C@@H](Cc1cnc[nH]1)C(=O)N[C@@H](CC(C)C)C(=O)N[C@@H](CC(C)C)C(=O)N[C@@H](CC(N)=O)C(=O)N[C@@H](CCSC)C(=O)N[C@H](C(=O)N[C@@H](CCCCN)C(=O)N[C@H]1CSSC[C@@H](C(=O)O)NC(=O)CNC(=O)[C@H]([C@@H](C)O)NC(=O)[C@H]([C@@H](C)CC)NC(=O)[C@H](CCCCN)NC1=O)C(C)C)C(C)C)C(C)C)C(C)C)[C@@H](C)O [GILDTVKGVAKDVAAHLLNMVKCKITGC] |
